In article PMC11215077, “Antiviral activity of temporin-1CEb analogues against gingival infection with herpes simplex virus type 1” (Frontiers in Oral Health, 2024):
Square brackets hold non-standard residues; d marks the D form. Peptide text beside a SMILES is read from it. AEEA = NCCOCCOCC(=O)O

Key:
HSV-1 [1] = assay: Virion integrity assay; type: cell-based, herpes simplex virus type 1; conditions: virions pre-treated 1 h at RT with 15 μg/ml, then TIGKs infected; qPCR up to 48 h p.i.; compared to Triton X-100
Protocol: HSV-1 samples were incubated with DAL-PEG-LK6 and CPP1-PEG-LK6 (15 μg/ml) for 1 h at room temperature on a shaker. Additionally, Triton X-100 was used as a positive control. Next, the mixtures were diluted to decrease tested molecules concentrations (0.65 ng/ml) and were used to infect TIGKs monolayers. After 48 h of incubation, supernatants were collected, and the quantity of HSV-1 DNA copies was determined using qPCR.
Viral DNA was isolated from the conditioned media or the apical washes of inserts (OTG model) using Viral DNA/RNA Isolation Kit (A&A Biotechnology). The virus yield assessed by quantitative real-time PCR (qPCR). The reaction was carried out in a CFX96 Touch Real-Time PCR Detection System (Bio-Rad), in a 10 μl reaction mixture consisting of TaqMan^TM Fast Advanced Master Mix, TaqMan^TM Microbe Detection assay against HSV-1 (Vi04230116_s1) and 1 μl of viral DNA. The temperature profile was 10 s at 95°C, followed by 40 cycles of 3 s at 95°C and 20 s at 60°C. DNA quantification standards were prepared. In summary, a fragment of viral DNA was amplified using the primers listed above and cloned into the pTZ57R/T plasmid using the InsTAclone PCR cloning kit. […] The number of copies per mL was estimated after the concentration of linearized DNA was assessed spectrophotometrically.

HSV-1 [2] = assay: Attachment (adsorption) assay in TIGKs cells; type: cell-based, herpes simplex virus type 1; conditions: 15 μg/ml present only during infection, 2 h at 4°C, 48 h
Protocol: HSV-1 stocks were generated by infecting Vero E6 cells. Cells were lysed at 48 h p.i. by two freeze-thaw cycles. The virus containing fluid was aliquoted and stored at −80°C. A control Vero E6 cell lysate from mock-infected cells was prepared in the same manner as the virus stock. Virus yield was assessed by virus titration on fully confluent Vero E6 cells in 96-well plates, according to the method of Reed & Muench ([32]). Plates were incubated at 37°C for 48 h and the occurrence of a cytopathic effect was scored using an inverted microscope, and TCID50 (50% tissue culture infection dose) was calculated.
TIGKs cells were seeded in 12-well plates and cultured for 48 h. Next, keratinocytes were infected with HSV-1 (TCID50 400 /ml) or treated with mock in the presence of DAL-PEG-LK6 or CPP1-PEG-LK6 (15 μg/ml) for 2 h at 4°C. […] Next, samples were collected, and viral yield was determined using titration and qPCR.
(§1) Viral DNA was isolated from the conditioned media or the apical washes of inserts (OTG model) using Viral DNA/RNA Isolation Kit (A&A Biotechnology). The virus yield assessed by quantitative real-time PCR (qPCR). […] DNA quantification standards were prepared. […] The number of copies per mL was estimated after the concentration of linearized DNA was assessed spectrophotometrically.

[3] = Azure A metachromatic assay; type: binding; conditions: HS 0.2 mg/ml, Azure A 23 μg/ml, peptide 1–300 μg/ml, 15 min at RT
Protocol: The possible interaction of peptide conjugate with HS was investigated by incubation the mixtures containing a constant concentration of HS (0.2 mg/ml, Sigma Aldrich) and solutions of CPP1-PEG-LK6 at different concentrations (1–300 μg/ml). Next, the mixtures were shaken for 15 min at room temperature. […] Azure A, a cationic dye when binding to heparin and/or HS changes its adsorption spectrum ([35]).

[4] = Confocal colocalization of CFS-labelled conjugate with HS on TIGKs cells; type: cell-based; conditions: CFS-labelled conjugate 15 μg/ml, 30 min at 4°C, average ± SEM
Protocol: To examine the colocalization of HS on the cell surface with tested peptide conjugate we treated TIGKs cells with CFS stained CPP1-PEG-LK6 (15 μg/ml) for 30 min at 4°C. Then cells were washed with cold PBS and fixed with 3.7% formaldehyde for 30 min. Afterwards, TIGKs cells were stained with primary antibodies (1:100; rat anti-HS, Abcam) for 2 h at room temperature. The cells were then incubated with secondary antibodies (1:1,000; goat anti-rat conjugated with Alexa Fluor 568, Cell Signaling) and with Alexa Fluor 633 Phalloidin. Next, the coverslips were placed on glass slide with ProLong Antifade Mounting Medium with DAPI and visualized using a confocal laser scanning microscope (LSM 880; Zeiss).

[5] = system: HSV-1 clinical strains (294.1, 615.9, C08R, C10B); assay: Viral replication assay with HSV-1 clinical strains; type: cell-based, herpes simplex virus type 1; conditions: 15 μg/ml, qPCR 48 h p.i.
Protocol: HSV-1 strain F was acquired from American Type Culture Collection (VR 733). Clinical isolates of HSV-1 (294.1, 615.9, C08R, C10B) were kindly provided by Donald M. Coen from Department of Biological Chemistry and Molecular Pharmacology, Harvard Medical School, Boston. HSV-1 strains were propagated and titrated on Vero cells.
Vero E6 or TIGKs cells were seeded in 12-well plates and cultured for 48 h. Next, the medium was removed and replaced with a fresh medium supplemented with DAL-PEG-LK6 and CPP1-PEG-LK6 (15 μg/ml). After 30 min of incubation at 37°C, cells were infected with HSV-1 at TCID50 400 /ml or treated with mock. After 2 h of infection at 37°C, unbound viral particles were removed by washing with PBS, and culture media supplemented with peptide conjugates were applied. Following 48 h of incubation, media were collected, and the quantity of HSV-1 DNA copies was assessed using titration and qPCR.
as §1

CC[C@H](C)[C@H](NC(=O)COCCOCCNC(=O)[C@@H](NC(=O)[C@H](CC(C)C)NC(=O)[C@H](Cc1ccc(O)cc1)NC(=O)[C@@H](NC(=O)[C@H](Cc1ccccc1)NC(=O)[C@@H]1CCCN1)C(C)C)[C@@H](C)CC)C(=O)N[C@@H](CCCCN)C(=O)N[C@@H](CCCCN)C(=O)N[C@H](C(=O)N[C@@H](CC(C)C)C(=O)N[C@@H](CO)C(=O)N[C@@H](CCCCN)C(=O)N[C@H](C(=O)N[C@@H](CCCCN)C(=O)N[C@@H](CCCCN)C(=O)N[C@@H](CC(C)C)C(=O)N[C@@H](CC(C)C)C(=O)N[C@@H](CCCCN)C(N)=O)[C@@H](C)CC)[C@@H](C)CC [CPP1-PEG-LK6] (H-PFVYLI[AEEA]IKKILSKIKKLLK-NH2)
effect on HSV-1 virion integrity (HSV-1 [1]): no inhibitory effect
decrease in viral yield, attachment assay, qPCR (HSV-1 [2]; Figure 2D): ~95%
decrease in viral titer, attachment assay, titration (HSV-1 [2]; Figure 2E): ~97%
interaction with heparan sulfate (Azure A release, absorbance at 630 nm) [3]: releases Azure A from HS
colocalization with HS, Manders overlap coefficient [4]: 0.93 ± 0.01
colocalization with HS, Pearson's correlation [4]: 0.82 ± 0.02
activity against HSV-1 clinical strains ([5]; Figure 4): inhibits all selected HSV-1 clinical strains
inhibition of replication of clinical strains ([5]; all tested strains: 294.1, C08R (drug-sensitive), 615.9, C10B (drug-resistant)): ~3 logs
